Measured values: the METLIN SMRT retention time set (Domingo-Almenara et al. 2019)

Test: gradient 5% acetonitrile 3 min, to 50% in 2 min, to 85% in 15 min, held 3 min, 100 µL/min
Settings: column: Zorbax Extend-C18 2.1 x 50 mm; eluents: water / acetonitrile, 0.1% formic acid
In short: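 Pure standards were run in mixtures of ~100 molecules by HPLC coupled to a quadrupole time-of-flight mass spectrometer. The column was a Zorbax Extend-C18 (2.1 × 50 mm, 1.8 μm) at 100 μL/min, with water and acetonitrile each containing 0.1% formic acid, in positive and negative ionization mode. Dead and dwell volumes were 40 μL and 900 μL. Retention time was taken from computationally picked adduct peaks, each manually inspected, with data collected over 3 months.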

SMILES	RP-LC retention time [s]
CCCNS(=O)(=O)c1cc(-c2nnc(-c3ccccc3)o2)ccc1F	939
O=C(CCc1c[nH]c2ccccc12)N1CCN(C(=O)c2cc(-c3cccnc3)n[nH]2)CC1	814
Cc1c(N2C(=O)C3C4C=CC(C4)C3C2=O)c(=O)n(-c2ccccc2)n1C (stereo not drawn)	615
CCOC(=O)CNc1ncnc2nc[nH]c12	513
CCCCn1cc(S(=O)(=O)NCc2ccccc2C(F)(F)F)c2cccnc21	1040
O=c1c2scc(-c3cccc(F)c3)c2ncn1Cc1cccc(Br)c1	1180
CN1CCN(CCCNC(=O)c2ccc(NC(=O)C3=CSCCO3)cc2)CC1	876
COc1ccc(C2Cn3nnc(-c4nc(-c5ccsc5)no4)c3CO2)cc1 (stereo not drawn)	1070
CN1c2cc(F)ccc2C(=O)NC12CCN(C(=O)Nc1ccccc1F)CC2	735
Cc1ccc(C)c(-c2cc3c(=O)n(Cc4nc(-c5ccc(F)cc5)no4)ncn3n2)c1	1210
Cc1nc2ccccc2c(=O)n1Cc1noc(-c2ccc3c(c2)OCO3)n1	831
O=C(CSc1ncccn1)N1CCc2ccccc21	720
COc1cccc(CNC(=O)c2c(C)sc3ccn(CC(C)C)c(=O)c23)c1	960
O=C(Cn1ccc2c(SCc3ccc(F)cc3)nccc21)NCc1ccc2c(c1)OCO2	744
O=C(CSc1nnc(-c2ccncc2)o1)Nc1cccc([N+](=O)[O-])c1	669
Cc1c(Cl)cccc1NC(=O)c1cccc([N+](=O)[O-])c1O	975
CC(C)N1C(=O)c2cccnc2Sc2cc(NC(=O)Cc3ccccc3F)ccc21	858
COc1ccc(Cl)c2c(=O)c3c([nH]c12)CCN(CC(=O)Nc1ccc(C)c(Cl)c1)C3	762
COc1ccc(-c2nn(Cc3ccccc3F)c(=O)c3nc(C)sc23)cc1OC	808
Cc1ccc(NC(=O)NCCn2c(C(F)(F)F)nc3cccnc32)cc1F	786
COc1ccc(OC)c(CNC(=O)COc2ccc(NC(=O)C3CC3)cn2)c1	712

SMILES	RP-LC retention time [s]
Cc1oc(-c2ccc(NC(=O)Cc3cccc(F)c3)cc2)nc1Cn1cccn1	814
CCCCNC(=O)c1nc(Nc2ccc(C)cc2)c2ccccc2n1	831
C/C=C/C(=O)N1C(=O)OC[C@@H]1Cc1ccccc1	891
COc1ccccc1-c1nc(-c2ccc3ncn(C)c3c2)no1	674
CCc1ccc2c(c1)cc(S(=O)(=O)c1ccccc1)c(=O)n2CC(=O)NC(C)CC (stereo not drawn)	945
COc1ccc(-c2nnc(-c3ccc(C)c(S(=O)(=O)NCc4cccnc4)c3)o2)cc1OC	660
COc1ccc(NC(=O)c2c(O)c3cccnc3n(-c3cccc(F)c3)c2=O)cc1Cl	1280
COc1ccc(-c2noc(Cn3ccn4nc(-c5ccc(C)cc5)cc4c3=O)n2)cc1OC	986
O=c1c2ccccc2c(-c2nc(-c3cccnc3)no2)cn1-c1ccc(F)cc1	1050
COc1ccc(C2C(C(=O)NCCC(C)C)c3cc(OC)c(OC)cc3C(=O)N2C)cc1 (stereo not drawn)	804
O=C(NCCCc1ccccc1)C1CCCN(c2ccc(=O)n(-c3cccc(Cl)c3)n2)C1 (stereo not drawn)	926
Cc1cc(-c2nc(-c3ccc(OC(F)(F)F)cc3)no2)nn1Cc1ccnc(N2CCN(C3CC3)CC2)c1	957
CCC(C)(C)C(=O)N1CCC2(CCc3nn(Cc4ccccc4)c(=O)n3CC2)CC1	811
O=C(C1=CN(c2cccc(F)c2)c2cc(F)ccc2S1(=O)=O)N1CCOCC1	755
c1ccc2c3c([nH]c2c1)CNCC3	703
CCOC(=O)C(=O)Cc1nc2ccccc2s1	871
Fc1ccccc1N1CCN(c2ncc3c(n2)CCN(Cc2cccc(F)c2F)C3)CC1	826
Cc1oc(-c2cccc(Cl)c2)nc1Cn1nnc(-c2nc(-c3ccccc3)no2)c1C	1320
CCC(C(=O)N1CCN(c2cc(-c3ccccc3)ncn2)CC1)c1ccccc1 (stereo not drawn)	649
O=C(NCCC1CCN(C(=O)Nc2cc(F)cc(F)c2)CC1)c1ccsc1	688

Second part, the compound after the results:

RP-LC retention time [s]	SMILES
736	CCc1cc(=O)n(CC(=O)Nc2c(C)cccc2C)c(N2CCOCC2)n1
931	COc1ccc(Cl)cc1NC(=O)NC1CCN(c2ccc(C)cc2)C1=O (stereo not drawn)
679	O=C(NCc1ccc(Br)cc1)c1ccc2ncnc(N3CCCC3)c2c1
783	O=c1n(Cc2ccc3c(c2)OCO3)nc2c(S(=O)(=O)N3CCCC3)cccn12
706	Cc1nc(C(=O)Nc2cccc(F)c2)c(C)n1C1CCN(S(C)(=O)=O)CC1
799	Cc1nc(N2CCCC(C(=O)NC3CCCC3)C2)c2c(C)c(C)oc2n1 (stereo not drawn)
864	Cc1csc(-c2ccc(N3CCN(C(=O)c4nn(C)c5ccccc45)CC3)nc2)n1
1010	CCN1C(=O)COc2ccc(-c3noc(C4CC(=O)N(c5cccc(Cl)c5)C4)n3)cc21 (stereo not drawn)
750	O=C(NC1CCCC1)c1c2c(nc3ccc(F)cc13)CCC2
676	Cc1c(F)cccc1NC(=O)N1CC(F)(F)C[C@H]1CN1CCCC1
811	O=C(c1ccc2nsnc2c1)N1CCN(c2ccc(F)cc2)CC1
746	Cc1oc(-c2[nH]ncc2C(=O)N(C)C)cc1S(=O)(=O)N1CCN(c2ccccc2)CC1
845	CCn1c(=O)sc2cc(S(=O)(=O)N3CCC(C(=O)N4CCCCC4)CC3)ccc21
823	O=C(CCC1CCCCC1)Nc1cccc(-c2cn3cccnc3n2)c1
988	CCc1ccc(N2CC(c3nc(-c4ccc(OC)cc4)no3)CC2=O)cc1 (stereo not drawn)
786	CCOCCCNC(=O)c1nnc(-c2ccc(S(=O)(=O)N3CCCC3)cc2)o1
606	CN(C)CCNC(=O)C1CCN(S(=O)(=O)c2ccc3c(c2)sc(=O)n3C)CC1
745	O=C(Nc1ccccc1F)N1CCN(Cc2nc3ccc(Cl)cc3o2)CC1
914	CC(C)Cc1ccc(S(=O)(=O)N(C)C2CCc3nn(CC4CC4)c(=O)n3CC2)cc1 (stereo not drawn)
878	COc1cc(CNc2nnc(-c3nnc(C4CC4)o3)c3ccccc23)cc(OC)c1
646	CCOCCCNC(=O)C1CCN(c2cc(Oc3ccc(CC)cc3)ncn2)CC1
1170	Cc1ccc(-c2nc(-c3ccc4nnn(C)c4c3)no2)c(C)c1
570	CN1CCN(C(=O)C2CC(=O)N(c3ccc4c(c3)CCN4C(=O)C3CC3)C2)CC1 (stereo not drawn)
989	CCOC(=O)c1c(S(=O)(=O)N2CCc3ccccc3C2)c(C)n(C)c1C

RP-LC retention time [s]	SMILES
664	O=C(CN1C(=O)C2CCCCN2c2ccc(C(=O)N3CCCC3)cc21)NCCc1ccco1 (stereo not drawn)
639	Cc1c(C(=O)O)nnn1-c1ccc2c(c1)OCO2
781	O=S(=O)(c1ccc2c(c1)CCCC2)N1CCCn2nc(-c3cccnc3)cc2C1
668	COc1cc(OC)c(NC(=O)N2CCCC2c2nncn2C2CCCC2)cc1Cl (stereo not drawn)
696	Cc1ccc(CN2CCN(C3CCN(C(=O)Nc4ccc5c(c4)OCO5)CC3)C(=O)C2=O)cc1
775	Cc1cc2c(cc1S(=O)(=O)N1CCCC1C(=O)Nc1ccc(F)cc1)OC(C)C(=O)N2 (stereo not drawn)
756	O=C([C@@H]1C[C@H](Oc2ccccc2)CN1C(=O)c1ccsc1)N1CCCC1
714	CC1(O)CCOC2(CCN(Cc3cn[nH]c3-c3ccc(F)cc3)CC2)C1 (stereo not drawn)
681	CCOC(=O)CCNC(=O)N1CCC(N2CCN(Cc3ccc(C)cc3)C(=O)C2=O)CC1
699	Cc1nc2cc(N3CCC(C(=O)NCc4ccc5c(c4)OCO5)CC3)cnc2nc1C
746	CCC(Sc1nc2cc(OC)c(OC)cc2c2nc(C)nn12)C(=O)NCc1ccco1 (stereo not drawn)
679	CN(C)c1ncncc1N1CCC(C(=O)NCCC2=CCCCC2)CC1
605	Cc1noc([C@@H]2CN(Cc3c(F)cccc3Cl)C[C@H]2CO)n1
630	COc1ccc(OC)c(S(=O)(=O)N2CCC(n3c(C)cnc3C)CC2)c1
953	CCn1c(=O)sc2cc(S(=O)(=O)N3CCC(C(=O)N(C)c4ccc(C)cc4)CC3)ccc21
636	O=C(NC1CC1)c1cn(CCC2CCCCN2C(=O)C2CC2)nn1 (stereo not drawn)
869	CCC(=O)N1CCc2cc(C)c(S(=O)(=O)NC3CCCC3)cc21
628	O=C(NCC1CCCCC1)C1CCN(c2nnc3ccccn23)CC1
714	Cc1cc2nc(C(F)(F)F)c(=O)n(C(C)C(=O)NCCCN3CCCC3)c2cc1C (stereo not drawn)
956	Cc1ccc(S(=O)(=O)N2CCCC(CCC(=O)NC3CCCCC3)C2)cc1 (stereo not drawn)
649	Cc1nc(C(=O)N2CCCCCC2c2nnc(C)o2)co1 (stereo not drawn)
620	CC(=O)N1c2ccc(S(=O)(=O)N3CCCC3)cc2CC1C(=O)NCc1ccc(N(C)C)cc1 (stereo not drawn)
769	CC(C)n1cnc(S(=O)(=O)N2CCC(C(=O)N3CCc4ccccc43)CC2)c1
